Source: patent US20070244103A1, “Novel Compounds Having an Anti-Bacterial Activity” (Morphochem Aktiengesellschaft Fur Kombinatorische Chemie, priority 2004, published 2007)

Assay: MIC of the examples against various organisms
Assay type: cell-based
Settings: against at least two of the above organisms (12-strain panel)
Description: The MIC (μg/ml) of the examples against various organisms was determined: A. baumannii ATCC19606, E. cloacae ATCC23355, E. coli ATCC25922, K. pneumoniae ATCC27736, P. mirabilis ATCC29906, P. aeruginosa ATCC27853, S. maltophilia ATCC13637, S. aureus ATCC43300, S. epidermidis ATCC14990, S. haemolyticus ATCC29970, E. faecalis ATCC29212 and E. faecium ATC19434.

Row | SMILES | MIC [µg/mL]
1 | COc1ccc2nccc(C(O)CN3C4CCC3CC(NC/C=C/c3ccccc3)C4)c2n1 (single isomer, unassigned) [Example 14, 1-(6-Methoxy-[1,5]-naphthyridin-4-yl)-2-[3-((E)-3-phenyl-allylamino)-8-aza-bicyclo[3.2.1]oct-8-yl]-ethanol] | ≤ 2
2 | COc1cnc2cccc(C(O)CN3C4CCC3CC(NCc3ccc5c(c3)OCO5)C4)c2n1 (stereo not drawn) [Example 81, 2-{3-[(Benzo[1,3]dioxol-5-ylmethyl)-amino]-8-aza-bicyclo[3.2.1]oct-8-yl}-1-(3-methoxy-quinoxalin-5-yl)-ethanol] | ≤ 2
3 | COc1ccc2nccc(C(O)CN3CCOC(CNCc4ccc5c(c4)NC(=O)CS5)C3)c2n1 (stereo not drawn) [Example 32, 6-[({4-[2-Hydroxy-2-(6-methoxy-[1,5]naphthyridin-4-yl)-ethyl]-morpholin-2-ylmethyl}amino)-methyl]-4H-benzo[1,4]thiazin-3-one] | ≤ 2
4 | COc1cnc2cccc(C(O)CN3C4CCC3CC(NCc3ccc5c(c3)OCCO5)C4)c2c1 (stereo not drawn) [Example 39, 2-{3-[(2,3-Dihydro-benzo[1,4]dioxin-6-ylmethyl)-amino]-8-aza-bicyclo[3.2.1]oct-8-yl}-1-(3-methoxy-quinolin-5-yl)-ethanol] | ≤ 2
5 | COc1ccc2ncc(Cl)c(C(O)CN3C4CCC3CC(NCc3cc5c(cc3F)SCC(=O)N5)C4)c2c1 (single isomer, unassigned) [Example 60, 6-({8-[2-(3-Chloro-6-methoxy-quinolin-4-yl)-2-hydroxy-ethyl]-8-aza-bicyclo[3.2.1]oct-3-ylamino}-methyl)-7-fluoro-4H-benzo[1,4]thiazin-3-one] | ≤ 2
6 | COc1cnc2cccc(NC(=O)C3CCCC(CNCc4ccc5c(n4)NC(=O)CS5)C3)c2n1 (stereo not drawn) [Example 105, 3-{[(3-Oxo-3,4-dihydro-2H-pyrido[3,2-b][1,4]thiazin-6-ylmethyl)-amino]-methyl}-cyclohexanecarboxylic acid (3-methoxy-quinoxalin-5-yl)-amide] | ≤ 2
7 | COc1ccc2ncc(Cl)c(C(O)CN3C4CCC3CC(NCc3cc5c(cn3)OCCO5)C4)c2n1 (stereo not drawn) [Example 30, 1-(3-Chloro-6-methoxy-[1,5]-naphthyridin-4-yl)-2-{3-[(2,3-dihydro-[1,4]dioxino[2,3-c]pyridin-7-ylmethyl)-amino]-8-aza-bicyclo[3.2.1]oct-8-yl}-ethanol] | ≤ 2
8 | COc1ccc2ncc(Cl)c(C(O)CN3C4CCC3CC(NCc3ccc5c(c3)OCO5)C4)c2c1 (single isomer, unassigned) [Example 61, 2-{3-[(Benzo[1,3]dioxol-5-ylmethyl)-amino]-8-aza-bicyclo[3.2.1]oct-8-yl}-1-(3-chloro-6-methoxy-quinolin-4-yl)-ethanol] | ≤ 2
9 | COc1cnc2cccc(C(O)CN3C4CCC3CC(NC/C=C/c3ccccc3)C4)c2n1 (stereo not drawn) [Example 86, 1-(3-Methoxy-quinoxalin-5-yl)-2-[3-((E)-3-phenylallylamino)-8-aza-bicyclo[3.2.1]oct-8-yl]-ethanol] | ≤ 2
10 | COc1ccc2ncc(Cl)c(C(O)CN3C4CCC3CC(NCc3ccc5nsnc5c3)C4)c2n1 (stereo not drawn) [Example 26, 2-{3-[(Benzo[1,2,5]thiadiazol-5-ylmethyl)-amino]-8-aza-bicyclo[3.2.1]oct-8-yl}-1-(3-chloro-6-methoxy-[1,5]-naphthyridin-4-yl)-ethanol] | ≤ 2
11 | COc1ccc2cccc(NC(=O)C3CCCC(CNCc4ccc5c(c4)OCCO5)C3)c2n1 (stereo not drawn) [Example 110, 3-{[(2,3-Dihydro-benzo[1,4]dioxin-6-ylmethyl)-amino]-methyl}-cyclohexanecarboxylic acid (2-methoxy-quinolin-8-yl)-amide] | ≤ 2
12 | COc1ccc2cccc(NC(=O)C3CCCC(CNCc4ccc5c(c4)NC(=O)CS5)C3)c2n1 (stereo not drawn) [Example 112, 3-{[(3-oxo-3,4-dihydro-2H-benzo[1,4]thiazin-6-ylmethyl)-amino]-methyl}-cyclohexanecarboxylic acid (2-methoxy-quinolin-8-yl)-amide] | ≤ 2
